Test results from patent publication US9040530B2, “1,2,4-triazine-6-carboxamide kinase inhibitors” (Portola Pharmaceuticals, Inc., priority 2012, dated 2015).
pIC50: −log10 of the molar value.

Molecular target: T1, full length active recombinant SYK enzyme (Homo sapiens, UniProt P43405)
T1 construct: full length active recombinant SYK enzyme (Millipore, Calif.); purchased Millipore
Experiment: Inhibition of Syk tyrosine phosphorylation activity (LANCE TR-FRET kinase assay)
Format: biochemical
Conditions: 1 nM active SYK enzyme, 550 nM SYK-substrate, 100 μM ATP, 1 hour at room temperature
Protocol: The in vitro and in vivo human Syk activities of the inventive compounds can be determined by various procedures known in the art, such as a test for their ability to inhibit the activity of human plasma Syk.
Inhibition of Syk Tyrosine Phosphorylation Activity
SYK tyrosine phosphorylation activity is measured using the LANCE™ Technology developed by Perkin Elmer Life and Analytical Sciences (Boston, Mass.). LANCE™ refers to homogeneous time resolved fluorometry applications using techniques such as time-resolved fluorescence resonance energy transfer assay (TR-FRET) (see generally for procedures in Perkin Elmer Application Note—How to Optimize a Tyrosine Kinase Assay Using Time Resolved Fluorescence-Based LANCE Detection, wwww.perkinelmer.com/lifesciences). The assay principle involves detection of a phosphorylated substrate using energy transfer from a phosphospecific europium-labeled antibody to streptavidin-allophycocyanin as an acceptor.
Molecules are reconstituted in 30% DMSO and serially diluted 1:3 with the final dilution containing DMSO in the absence of the candidate molecule. The final DMSO concentration in the assay is 3%. Kinase assays are performed as a two part reaction. […] The second reaction involves termination of the kinase reaction and the simultaneous addition of the detection reagents-europium-labeled anti-phosphotyrosine reagent (Eu-W1024-PY100, Perkin Elmer, Boston, Mass.) and Streptavidin-Allophycocyanin detection reagent (SA-APC, Prozyme, CA). The kinase reaction is performed in a black U-bottom 96-well microtitre plate. […] The reaction is allowed to proceed for 1 hour at room temperature. The quench buffer contains 100 mM Tris pH 7.5, 300 mM […], 20 mM EDTA, 0.02% Brij35, and 0.5% BSA. The detection reagents are added to the reaction mixture at the following dilutions-1:500 for Eu-W1024-PY100 and 1:250 for SA-APC. The kinase reaction is terminated by the addition of 50 μL quench buffer containing the detection reagents. The detection is allowed to proceed for 1 hr at room temperature. Detection of the phosphorlated substrate in the absence and presence of inhibitors is measured in the TR-FRET instrument, Analyst HT (Molecular Probes, Sunnyvale, Calif.) and the condition for measurements are set up using CriterionHost Release 2.0 (Molecular Probes, Sunnyvale, Calif.). […] IC50s were derived by non-linear regression analysis.

Row | pIC50 | Compound
1 | 6.00 to 7.00 | NC(=O)c1nnc(N[C@@H]2CCCC(F)(F)[C@@H]2N)nc1Nc1ccc(Cl)c(Cl)c1 [Example 236, 3-(((1R,2R)-2-amino-3,3-difluorocyclohexyl)amino)-5-((3,4-dichlorophenyl)amino)-1,2,4-triazine-6-carboxamide]
2 | 6.00 to 7.00 | CC[C@@H](Nc1nnc(C(N)=O)c(Nc2cncs2)n1)C(N)=O [Example 199, (R)-3-((1-amino-1-oxobutan-2-yl)amino)-5-(thiazol-5-ylamino)-1,2,4-triazine-6-carboxamide]
3 | 8.00 to 9.00 | NC(=O)c1nnc(N[C@@H]2CCCC[C@@H]2N)nc1Nc1ccc2ncsc2c1 [Example 42, 3-(((1R,2S)-2-aminocyclohexyl)amino)-5-(benzo[d]thiazol-6-ylamino)-1,2,4-triazine-6-carboxamide]
4 | 8.00 to 9.00 | CC(C)C[C@@H](Nc1nnc(C(N)=O)c(Nc2ccc3ncccc3c2)n1)C(N)=O [Example 53, (R)-3-((1-amino-4-methyl-1-oxopentan-2-yl)amino)-5-(quinolin-6-ylamino)-1,2,4-triazine-6-carboxamide]
5 | 8.00 to 9.00 | CC[C@@H](Nc1nnc(C(N)=O)c(Nc2csc3ncccc23)n1)C(N)=O [Example 39, (R)-3-((1-amino-1-oxobutan-2-yl)amino)-5-(thieno[2,3-b]pyridin-3-ylamino)-1,2,4-triazine-6-carboxamide]
6 | 7.00 to 8.00 | Cc1cccc(Nc2nc(N[C@H](CC(C)C)C(N)=O)nnc2C(N)=O)c1 [Example 120, (R)-3-((1-amino-4-methyl-1-oxopentan-2-yl)amino)-5-(m-tolylamino)-1,2,4-triazine-6-carboxamide]
7 | 6.00 to 7.00 | NC(=O)c1nnc(N[C@@H]2CCOC[C@@H]2N)nc1Nc1cnc2cccnc2c1 [Example 257, 5-((1,5-naphthyridin-3-yl)amino)-3-(((3R,4R)-3-aminotetrahydro-2H-pyran-4-yl)amino)-1,2,4-triazine-6-carboxamide]
8 | 7.00 to 8.00 | N#Cc1ccc(Nc2nc(N[C@@H]3CCCC[C@@H]3N)nnc2C(N)=O)cc1F [Example 116, 3-(((1R,2S)-2-aminocyclohexyl)amino)-5-((4-cyano-3-fluorophenyl)amino)-1,2,4-triazine-6-carboxamide]
9 | 7.00 to 8.00 | CC[C@@H](Nc1nnc(C(N)=O)c(Nc2ccc3ccn(C)c3c2)n1)C(N)=O [Example 163, (R)-3-((1-amino-1-oxobutan-2-yl)amino)-5-((1-methyl-1H-indol-6-yl)amino)-1,2,4-triazine-6-carboxamide]
10 | < 6.00 | CN(C)C(=O)c1ccc(Nc2nc(N[C@@H]3CCCC[C@@H]3N)nnc2C(N)=O)cn1 [Example 65, 3-(((1R,2S)-2-aminocyclohexyl)amino)-5-((6-(dimethylcarbamoyl)pyridin-3-yl)amino)-1,2,4-triazine-6-carboxamide]
11 | 7.00 to 8.00 | CC[C@@H](Nc1nnc(C(N)=O)c(Nc2ccc(Cl)cc2)n1)C(N)=O [Example 200, (R)-3-((1-amino-1-oxobutan-2-yl)amino)-5-((4-chlorophenyl)amino)-1,2,4-triazine-6-carboxamide]
12 | 7.00 to 8.00 | NC(=O)c1nnc(N[C@@H]2CCCC(F)(F)[C@@H]2N)nc1Nc1ccc2c(c1)COC2 [Example 216, 3-(((1R,2R)-2-amino-3,3-difluorocyclohexyl)amino)-5-((1,3-dihydroisobenzofuran-5-yl)amino)-1,2,4-triazine-6-carboxamide]
13 | 6.00 to 7.00 | Cn1cc(Nc2nc(N[C@@H]3CCCC[C@@H]3N)nnc2C(N)=O)cn1 [Example 78, 3-(((1R,2S)-2-aminocyclohexyl)amino)-5-((1-methyl-1H-pyrazol-4-yl)amino)-1,2,4-triazine-6-carboxamide]
14 | 6.00 to 7.00 | NC(=O)c1nnc(N[C@@H]2CCCC(F)(F)[C@@H]2N)nc1Nc1ccc2c(ccc[n+]2[O-])c1 [Example 50, 6-((3-(((1R,2R)-2-amino-3,3-difluorocyclohexyl)amino)-6-carbamoyl-1,2,4-triazin-5-yl)amino)quinoline 1-oxide]

Further lines, the molecule ahead of its results:

Row | Compound | pIC50
15 | NC(=O)c1nnc(N[C@@H]2CCCC[C@@H]2N)nc1Nc1ccc(-c2ncccn2)cc1 [Example 3, 3-(((1R,2S)-2-aminocyclohexyl)amino)-5-((4-(pyrimidin-2-yl)phenyl)amino)-1,2,4-triazine-6-carboxamide] | 8.00 to 9.00
16 | NC(=O)c1nnc(N[C@@H]2CCOC[C@@H]2N)nc1Nc1ccc(Cl)cc1 [Example 243, 3-(((3R,4R)-3-aminotetrahydro-2H-pyran-4-yl)amino)-5-((4-chlorophenyl)amino)-1,2,4-triazine-6-carboxamide] | 7.00 to 8.00
17 | Cc1ccc(Nc2nc(N[C@H](Cc3ccc(F)cc3)C(N)=O)nnc2C(N)=O)cc1 [Example 189, (R)-3-(1-amino-3-(4-fluorophenyl)-1-oxopropan-2-ylamino)-5-(p-tolylamino)-1,2,4-triazine-6-carboxamide] | 7.00 to 8.00
18 | COc1cc(Nc2nc(N[C@@H]3CCCC(F)(F)[C@@H]3N)nnc2C(N)=O)ccc1C [Example 229, 3-(((1R,2R)-2-amino-3,3-difluorocyclohexyl)amino)-5-((3-methoxy-4-methylphenyl)amino)-1,2,4-triazine-6-carboxamide] | 7.00 to 8.00
19 | CC[C@@H](Nc1nnc(C(N)=O)c(Nc2cc(C)cc(F)c2)n1)C(N)=O [Example 197, (R)-3-((1-amino-1-oxobutan-2-yl)amino)-5-((3-fluoro-5-methylphenyl)amino)-1,2,4-triazine-6-carboxamide] | 7.00 to 8.00
20 | Cc1ccc(Nc2nc(N[C@@H]3CCCC[C@@H]3N)nnc2C(N)=O)cc1C [Example 207, 3-(((1R,2S)-2-aminocyclohexyl)amino)-5-((3,4-dimethylphenyl)amino)-1,2,4-triazine-6-carboxamide] | 8.00 to 9.00
21 | NC(=O)c1nnc(N[C@@H]2CCCC(F)(F)[C@@H]2N)nc1Nc1ccc(Cl)cc1 [Example 250, 3-(((1R,2R)-2-amino-3,3-difluorocyclohexyl)amino)-5-((4-chlorophenyl)amino)-1,2,4-triazine-6-carboxamide] | 6.00 to 7.00
22 | NC(=O)c1nnc(N[C@@H]2CCCC[C@@H]2N)nc1Nc1ccc(F)nc1 [Example 67, 3-(((1R,2S)-2-aminocyclohexyl)amino)-5-((6-fluoropyridin-3-yl)amino)-1,2,4-triazine-6-carboxamide] | 6.00 to 7.00
23 | CC[C@@H](Nc1nnc(C(N)=O)c(Nc2ccc(C)c(C)c2)n1)C(N)=O [Example 203, (R)-3-((1-amino-1-oxobutan-2-yl)amino)-5-((3,4-dimethylphenyl)amino)-1,2,4-triazine-6-carboxamide] | 7.00 to 8.00
24 | CC[C@@H](Nc1nnc(C(N)=O)c(Nc2cccc(F)c2)n1)C(N)=O [Example 195, (R)-3-((1-amino-1-oxobutan-2-yl)amino)-5-((3-fluorophenyl)amino)-1,2,4-triazine-6-carboxamide] | 7.00 to 8.00
25 | Cn1cc2ccc(Nc3nc(N[C@@H]4CCCC[C@@H]4N)nnc3C(N)=O)cc2n1 [Example 181, 3-(((1R,2S)-2-aminocyclohexyl)amino)-5-((2-methyl-2H-indazol-6-yl)amino)-1,2,4-triazine-6-carboxamide] | 8.00 to 9.00
26 | CC[C@@H](Nc1nnc(C(N)=O)c(Nc2cnc3c(ccn3C)c2)n1)C(N)=O [Example 152, (R)-3-((1-amino-1-oxobutan-2-yl)amino)-5-((1-methyl-1H-pyrrolo[2,3-b]pyridin-5-yl)amino)-1,2,4-triazine-6-carboxamide] | 7.00 to 8.00
27 | NC(=O)c1nnc(N[C@@H]2CCOC[C@@H]2N)nc1Nc1ccc2scnc2c1 [Example 247, 3-(((3R,4R)-3-aminotetrahydro-2H-pyran-4-yl)amino)-5-(benzo[d]thiazol-5-ylamino)-1,2,4-triazine-6-carboxamide] | 7.00 to 8.00
28 | NC(=O)c1nnc(N[C@@H]2CCCC[C@@H]2N)nc1Nc1cccc2ncccc12 [Example 46, 3-(((1R,2S)-2-aminocyclohexyl)amino)-5-(quinolin-5-ylamino)-1,2,4-triazine-6-carboxamide] | 8.00 to 9.00
29 | NC(=O)c1nnc(N[C@@H]2CCCC[C@@H]2N)nc1Nc1cc(Cl)c2ncccc2c1 [Example 176, 3-(((1R,2S)-2-aminocyclohexyl)amino)-5-((8-chloroquinolin-6-yl)amino)-1,2,4-triazine-6-carboxamide] | > 9.00
30 | CC[C@@H](Nc1nnc(C(N)=O)c(Nc2ccc(OC)c(Cl)c2)n1)C(N)=O [Example 174, (R)-3-((1-amino-1-oxobutan-2-yl)amino)-5-((3-chloro-4-methoxyphenyl)amino)-1,2,4-triazine-6-carboxamide] | 7.00 to 8.00
